US5494932A, “Sulfonic stilbene derivatives in the treatment of viral disease” (Merrell Dow Pharmaceuticals Inc., priority 1991, dated 1996)
Like-named read-outs stand apart in the source and are kept apart here.

How the values were obtained:
[1] = system: HIV-1 strain GB8 in JM cells; test: Established HIV-1 (GB8) infection of JM cells, post-infection addition: syncytia and p24 antigen; format: cell-based, HIV-1 (human T cell line JM); details: 100 μg/ml
[2] = system: HIV-1 strain GB8 in JM cells; test: as above; format: cell-based, HIV-1 (human T cell line JM); details: for activity at 100 µg/mL: Human immunodeficiency virus 1, 75 h; for relative order of antiviral potency: established HIV-1 infections
Experimental: The stilbene disulfonic acids blocked HIV-1 replication when the compounds were added within 2 hours of virus adsorption, i.e., prior to virus penetration, and the cells were cultured in the presence of the inhibitors. These compounds were next examined for antiviral activity at later stages of the infection process. At a MOI of 0.01 infectious units/cell (GB8 virus), viral glycoproteins appear at the surface of JM cells by 24 hours post-infection (p.i.) and initiate fusion with neighboring CD4^+ cells; the syncytial numbers show a good correlation with the production of cell-free virus (Tyms et al., 1990).
In post-treatent experiments, cells were first infected with HIV-1 strain RF or GB8 for 2 hours at 37° C. at a MOI of 0.01 and allowed to grow for either 24 or 43 hours before replating into fresh growth medium containing 100 μg/ml of DIDS, H2 DIDS or SITS. Syncytia were then scored at 52 and 68 hours p.i. in triplicate, and p24 viral core antigen in culture fluids were assayed at 75 hours p.i. as described above.
Protocol: JM cells were infected with HIV at a multiplicity of infection of 0.00025 syncytial forming units per cell. Virus adsorption was at room temperature for one hour. The cells were then washed three times and distributed in wells of a tissue culture plate at a concentration of 2×10^5 cells/well. Either DIDS, SITS or H2 DIDS (all at 100 μg/ml) were added to wells at 0, 24, 43 and 51 hours post-infection. As virus controls some wells had no drug added. Syncytia were scored at 43, 52 and 68 hours post-infection. The cell-free supernatant fluids of the virus control wells were harvested after 33, 43, 51, 68 and 75 hours post-infection. All other wells were harvested 75 hours post-infection. The supernatant fluid was then assayed for p24 viral core antigen.

[3] = system: HIV-1 strain RF in C8166 cells; test: Acute HIV-1 (RF) infection of C8166 cells: syncytial and p24 antigen assays; format: cell-based, HIV-1 (human C8166 cells)
Excerpt: When evaluated in the human T cell line JM acutely infected with the GB8 virus, DIDS, H2 DIDS and SITS (Table I) suppressed virus-induced multinucleated giant cell formation (syncytia). […] We also examined the antiviral properties of these compounds in a second host-cell/virus system, i.e., the highly CD4+ C8166 cells infected with the Haitian strain of HIV-1, RF.
The cell lines used were the semi-mature human lymphoblastoid leukemia T cell line JM, the human T-lymphoblastoid C8166 cell line, the human cutaneous T cell lymphoma line H9 and, the human T cell transformed line MT-4. Stocks of HIV-1 strains RF and GB8 (kindly provided by Dr. Graham Farrar, Center for Applied Microbiological Research, Porton Dawn, England) were prepared from chronically infected H9 cells and acutely infected JM cells, respectively. Virus stocks consisted of cell-free growth medium (RPMI 1640 plus 10% fetal calf serum) containing freshly shed virus. Virus titres were determined by a standard plaque reduction assay.
Virus stocks (strains RF or GB8) were diluted into growth medium containing various concentrations of DIDS, H2 DIDS or SITS. The required number of cells were then immediately added and the virus allowed to absorb for 2 hours at 37° C. to give a multiplicity of infection (MOI) of 0.001 infectious units/cell. The virus-infected cells were pelleted, washed three times in phosphate buffered saline (PBS), and resuspended in fresh growth medium containing the appropriate concentrations of stilbene disulfonic acids. Cells were then distributed into 24-well culture plates (Falcon) and assayed as described below for virus infection. Alternatively, cells were first infected with HIV-1 (strains RF or GB8) for 2 hours at 37° C. at the above MOI. After extensive washing, cells were replated into fresh growth medium containing various concentrations of stilbene disulfonic acids. In the above experiments, syncytia were scored between 2 and 4 days postinfection (p.i.) in triplicate using an Olympus CK2 inverted microscope. The culture fluids were recovered between 3 and 5 days p.i., clarified by low speed centrifugation (2,000 rpm) for 5 minutes and the level of HIV-1 p24 core antigen in the supernatants was determined by p24 antigen ELISA (Coulter). The concentrations of stilbene disulfonic acids giving 50% inhibition of HIV-1 growth (IC50) were determined from the dose-response curves by linear regression analysis.

[4] = 100 μg/ml, time of addition 0 h p.i.
[5] = 100 μg/ml, time of addition 24h
[6] = 100 μg/ml, time of addition 24 hours
[7] = 100 μg/ml, time of addition 24 h p.i.
[8] = 100 μg/ml, time of addition 43h
[9] = 100 μg/ml, time of addition 43 hours
[10] = 100 μg/ml, time of addition 43 h p.i.
[11] = 100 μg/ml, time of addition 51h
[12] = 100 μg/ml, time of addition 51 hours
[13] = 100 μg/ml, time of addition 24 h p.i., read-out: P24 Antigen 75 h, % (drug-free medium 100%)
[14] = 100 μg/ml, time of addition 43 h p.i., read-out: P24 Antigen 75 h, % (drug-free medium 100%)
[15] = Human immunodeficiency virus 1, RF strain in C8166 cells, read-out: P24 Antigen % Virus Control (values in parenthesis)
[16] = 100 μg/ml, time of addition 0 hours
[17] = read-out: P24 Antigen (75 hours post-infection), %, 100 μg/ml, time of addition 0 hours
[18] = read-out: P24 Antigen (75 hours post-infection), %, 100 μg/ml, time of addition 24 hours
[19] = read-out: P24 Antigen (75 hours post-infection), %, 100 μg/ml, time of addition 43 hours
[20] = read-out: P24 Antigen (75 hours post-infection), %, 100 μg/ml, time of addition 51 hours

For `O=S(=O)(O)c1cc(N=C=S)ccc1CCc1ccc(N=C=S)cc1S(=O)(=O)O` [H2 DIDS, 4,4'-diisothiocyanatodihydrostilbene-2,2'-disulfonic acid], the “Mean Syncytia 51 hrs” value ([1]; time of addition 0h) was 0, the “Mean Syncytia 51 hrs” value ([1]; time of addition 24h) was 0 and the “Mean Syncytia 68 hrs” value ([2]; 100 μg/ml, time of addition 0h) was 0. The “P24 Antigen 75 h” value [2, 4] was “Neg”, the “Syncytia at 52h” value [2, 4] was 0 and the “Syncytia at 68h” value [2, 4] was 0. The “Mean Syncytia 68 hrs” value [2, 5] was 0, the “P24 Antigen (75 hours post-infection)” value [2, 6] was 2363 pg/mL and the “P24 Antigen 75 h” value [2, 7] was 2.4 ng/mL. For the same compound, the “Syncytia at 52h” value [2, 7] was 0, the “Syncytia at 68h” value [2, 7] was 0 and the “Mean Syncytia 51 hrs” value [2, 8] was 19. The “Mean Syncytia 68 hrs” value [2, 8] was 3, the “P24 Antigen (75 hours post-infection)” value [2, 9] was 16412 pg/mL and the “P24 Antigen 75 h” value [2, 10] was 16.4 ng/mL. The “Syncytia at 52h” value [2, 10] was 19, the “Syncytia at 68h” value [2, 10] was 3 and the “Mean Syncytia 68 hrs” value [2, 11] was 15. For the same compound, the “P24 Antigen (75 hours post-infection)” value [2, 12] was 42020 pg/mL, the activity at 100 µg/mL ([2]; 100 μg/ml, time of addition 0 hours, read-out: P24 Antigen (75 hours post-infection), %) was < 1% and the activity at 100 µg/mL ([2]; 100 μg/ml, time of addition 0 h p.i., read-out: P24 Antigen 75 h, % (drug-free medium 100%)) was 0%. It also gave an activity at 100 µg/mL ([2]; 100 μg/ml, time of addition 24 hours, read-out: P24 Antigen (75 hours post-infection), %) of 2%, an activity at 100 µg/mL [2, 13] of 2% and an activity at 100 µg/mL ([2]; 100 μg/ml, time of addition 43 hours, read-out: P24 Antigen (75 hours post-infection), %) of 14%. For the same compound, the activity at 100 µg/mL [2, 14] was 14%, the activity at 100 µg/mL ([2]; 100 μg/ml, time of addition 51 hours, read-out: P24 Antigen (75 hours post-infection), %) was 36% and the activity at 50 µg/mL [3, 15] was > 100%. For the same compound, the activity at 100 µg/mL [3, 15] was 59% and the activity at 200 µg/mL [3, 15] was 2.5%.

With `O=S(=O)(O)c1cc(N=C=S)ccc1C=Cc1ccc(N=C=S)cc1S(=O)(=O)O` [DIDS, 4,4'-diisothiocyanatostilbene-2,2'-disulfonic acid] the “Mean Syncytia 51 hrs” value ([1]; time of addition 0h) was 0, the “Mean Syncytia 51 hrs” value ([1]; time of addition 24h) was 0 and the “syncytia by 68 hours p.i.” value ([2]; 100 μg/ml, added 43 hours p.i.) was “completely absent”. The “fusion relative to virus control” value ([2]; 100 μg/ml, addition 24 hours p.i., scored at 52 and 68 hours p.i.) was “completely suppressed fusion”, the “Mean Syncytia 68 hrs” value ([2]; 100 μg/ml, time of addition 0h) was 0 and the “P24 Antigen (75 hours post-infection)” value [2, 16] was “Neg”. For the same compound, the “P24 Antigen 75 h” value [2, 4] was “Neg”, the “Syncytia at 52h” value [2, 4] was 0 and the “Syncytia at 68h” value [2, 4] was 0. The “Mean Syncytia 68 hrs” value [2, 5] was 0, the “P24 Antigen (75 hours post-infection)” value [2, 6] was “Neg” and the “P24 Antigen 75 h” value [2, 7] was “Neg”. For the same compound, the “Syncytia at 52h” value [2, 7] was 0, the “Syncytia at 68h” value [2, 7] was 0 and the “Mean Syncytia 51 hrs” value [2, 8] was 19. The “Mean Syncytia 68 hrs” value [2, 8] was 0, the “P24 Antigen (75 hours post-infection)” value [2, 9] was 2793 pg/mL and the “P24 Antigen 75 h” value [2, 10] was 2.8 ng/mL. The “Syncytia at 52h” value [2, 10] was 19, the “Syncytia at 68h” value [2, 10] was 0 and the “Mean Syncytia 68 hrs” value [2, 11] was 25. For the same compound, the “P24 Antigen (75 hours post-infection)” value [2, 12] was 49050 pg/mL, the activity at 100 µg/mL [2, 17] was > 1% and the activity at 100 µg/mL [2, 18] was < 1%. For the same compound, the activity at 100 µg/mL [2, 19] was 2.4%, the activity at 100 µg/mL [2, 20] was 42% and the “relative order of antiviral potency” value [2] was “DIDS>H2 DIDS>>SITS”. For the same compound, the HIV-1 infection ([3]; C8166 cells infected with RF) was “blocked HIV-1 infection”, the activity at 25 µg/mL ([3]; Human immunodeficiency virus 1, 25 µg/mL, RF strain in C8166 cells, read-out: P24 Antigen % Virus Control (values in parenthesis)) was 100% and the activity at 50 µg/mL [3, 15] was 83%. For the same compound, the activity at 100 µg/mL [3, 15] was 33% and the activity at 200 µg/mL [3, 15] was 4.8%.

With `CC(=O)Nc1ccc(C=Cc2ccc(N=C=S)cc2S(=O)(=O)O)c(S(=O)(=O)O)c1` [SITS, 4-acetamido-4'-isothiocyanatostilbene-2,2'-disulfonic acid] the “Mean Syncytia 51 hrs” value ([1]; time of addition 0h) was 4, the “Mean Syncytia 51 hrs” value ([1]; time of addition 24h) was 35 and the “Mean Syncytia 68 hrs” value ([2]; 100 μg/ml, time of addition 0h) was 27. The “P24 Antigen (75 hours post-infection)” value [2, 16] was 8680 pg/mL, the “P24 Antigen 75 h” value [2, 4] was 6.7 ng/mL and the “Syncytia at 52h” value [2, 4] was 4. For the same compound, the “Syncytia at 68h” value [2, 4] was 27, the “Mean Syncytia 68 hrs” value [2, 5] was 77 and the “P24 Antigen (75 hours post-infection)” value [2, 6] was 21669 pg/mL. The “P24 Antigen 75 h” value [2, 7] was 21.7 ng/mL, the “Syncytia at 52h” value [2, 7] was 35 and the “Syncytia at 68h” value [2, 7] was 77. The “Mean Syncytia 51 hrs” value [2, 8] was 59, the “Mean Syncytia 68 hrs” value [2, 8] was “As VC” and the “P24 Antigen (75 hours post-infection)” value [2, 9] was 49245 pg/mL. The “P24 Antigen 75 h” value [2, 10] was 49.3 ng/mL, the “Syncytia at 52h” value [2, 10] was 59 and the “Syncytia at 68h” value [2, 10] was 80. For the same compound, the “Mean Syncytia 68 hrs” value [2, 11] was “As VC”, the “P24 Antigen (75 hours post-infection)” value [2, 12] was 53830 pg/mL and the activity at 100 µg/mL [2, 13] was 18.6%. It also gave an activity at 100 µg/mL [2, 14] of 42.3%, an activity at 100 µg/mL ([2]; read-out: P24 Antigen 75 h, % (drug-free medium 100%), 100 μg/ml, time of addition 0 h p.i.) of 7.4% and an activity at 100 µg/mL [2, 17] of 7.4%. The activity at 100 µg/mL [2, 18] was 18.6%, the activity at 100 µg/mL [2, 19] was 42.3% and the activity at 100 µg/mL [2, 20] was 47.2%. For the same compound, the “relative order of antiviral potency” value [2] was “DIDS>H2 DIDS>>SITS”, the “anti-syncytial activity relative to virus control” value ([2]; established infection) was “no anti-syncytial activity” and the “p24 antigen (in words)” value ([2]; established infection) was “slightly reduced”. The “activity in syncytial and p24 antigen assays” value ([3]; 100 μg/ml, C8166 cells infected with RF) was “inactive”, the activity at 50 µg/mL [3, 15] was > 100% and the activity at 100 µg/mL [3, 15] was > 100%. The activity at 200 µg/mL [3, 15] was > 100%.
